Results taken from patent US9533973B2, “Allosteric modulators of 5-hydroxytryptamine 2C receptor (5-HT2CR)” (THE BOARD OF REGENTS OF THE UNIVERSITY OF TEXAS SYSTEM, priority 2011, dated 2017).

Assay: Solubility of representative compounds (Table 1)
Assay type: physicochemical
Conditions: solvents listed

Row | Structure (SMILES) | Solubility
1 | Cc1ccc(CC[C@H]2CCNC(C(=O)N[C@@H](CO)[C@@H](O)c3ccccc3)C2)cc1 (stereo in doubt) [CYD-6-9-1, (2S,4S)—N-((1S,2S)-1,3-dihydroxy-1-phenylpropan-2-yl)-4-(4-methylphenethyl)piperidine-2-carboxamide] | EtOH, DMSO
2 | CC1CCC(CC[C@H]2CCNC(C(=O)N[C@@H](CO)[C@@H](O)c3ccccc3)C2)CC1 (stereo in doubt) [CYD-6-10-1, (2S,4S)—N-((1S,2S)-1,3-dihydroxy-1-phenylpropan-2-yl)-4-(2-(4-methylcyclohexyl)ethyl)piperidine-2-carboxamide] | EtOH, DMSO
3 | CC1CCC(CC[C@@H]2CCN[C@H](C(=O)N[C@@H](CO)C(O)c3ccccc3)C2)CC1 (stereo in doubt) [CYD-6-10-2, (2S,4R)—N-((1R,2S)-1,3-dihydroxy-1-phenylpropan-2-yl)-4-(2-(4-methylcyclohexyl)ethyl)piperidine-2-carboxamide] | EtOH, DMSO
4 | O=C(N[C@@H](CO)[C@@H](O)c1ccccc1)C1C[C@@H](C2CCCCC2)CCN1 (stereo in doubt) [CYD-6-15-1, (2S,4S)-4-cyclohexyl-N-((1S,2S)-1,3-dihydroxy-1-phenylpropan-2-yl)piperidine-2-carboxamide] | EtOH, DMSO
5 | O=C(N[C@@H](CO)[C@@H](O)c1ccccc1)C1C[C@@H](c2ccccc2)CCN1 (stereo in doubt) [CYD-6-16-1, (2S,4S)—N-((1S,2S)-1,3-dihydroxy-1-phenylpropan-2-yl)-4-phenylpiperidine-2-carboxamide] | EtOH, DMSO
6 | CCCCCCCCCC#Cc1ccnc(C(=O)NC(C(C)Cl)C2OC(SC)C(O)C(O)C2O)c1 (stereo not shown) [CYD-3-21, 4-Undec-1-ynyl-pyridine-2-carboxylic acid [2-chloro-1-(3,4,5-trihydroxy-6-methylsulfanyl-tetrahydro-pyran-2-yl)-propyl]-amide] | EtOH, DMSO
7 | O=C(NC(CO)CO)c1ccccc1C1CCNCC1 [CYD-3-33, N-(1,3-Dihydroxypropan-2-yl)-2-(piperidin-4-yl)benzamide] | EtOH, DMSO H2O
8 | O=C(NCC(O)CO)c1ccccc1C1CCNCC1 (stereo not shown) [CYD-3-35, N-(2,3-Dihydroxypropyl)-2-(piperidin-4-yl)benzamide] | EtOH, DMSO, H2O
9 | CCCCCCCCCCC[C@H]1CCN[C@@H](C(=O)N[C@@H](CO)[C@@H](O)c2ccccc2)C1 [CYD-3-47-1, (2R,4S)—N-((1S,2S)-1,3-dihydroxy-1-phenylpropan-2-yl)-4-undecylpiperidine-2-carboxamide] | EtOH, DMSO
10 | CCCCCCCCCCC[C@@H]1CCN[C@H](C(=O)N[C@@H](CO)[C@@H](O)c2ccccc2)C1 [CYD-3-47-2, (2S,4R)—N-((1S,2S)-1,3-dihydroxy-1-phenylpropan-2-yl)-4-undecylpiperidine-2-carboxamide] | EtOH, DMSO
11 | O=C(NCC(O)CO)C1CNCCN1c1ccccc1 (stereo not shown) [CYD-3-49, N-(2,3-Dihydroxypropyl)-1-phenylpiperazine-2-carboxamide] | EtOH, DMSO, H2O
12 | O=C(N[C@@H](CO)[C@@H](O)c1ccccc1)c1ccccc1C1CCNCC1 [CYD-3-50, N-((1S,2S)-1,3-dihydroxy-1-phenylpropan-2-yl)-2-(piperidin-4-yl)benzamide] | EtOH, DMSO, H2O
13 | CS[C@H]1O[C@H]([C@H](NC(=O)C2CC(CCc3ccccc3)CCN2)[C@@H](C)O)[C@H](O)[C@H](O)[C@H]1O (stereo partly drawn) [CYD-3-61, 2,4-cis-4-Phenethyl-piperidine-2-carboxylic acid [2-hydroxy-1-(3,4,5-trihydroxy-6-methylsulfanyl-tetrahydro-pyran-2-yl)-propyl]-amide] | EtOH, DMSO
14 | CS[C@H]1O[C@H]([C@H](NC(=O)C2CC(CCC3CCCCC3)CCN2)[C@@H](C)O)[C@H](O)[C@H](O)[C@H]1O (stereo partly drawn) [CYD-3-62, 2,4-cis-4-(2-Cyclohexyl-ethyl)-piperidine-2-carboxylic acid [2-hydroxy-1-(3,4,5-trihydroxy-6-methylsulfanyl-tetrahydro-pyran-2-yl)-propyl]-amide] | EtOH, DMSO
15 | CCCCCCCCCCC[C@@H]1CCN[C@H](C(=O)N[C@H](CO)[C@H](O)c2ccccc2)C1 [CYD-5-68-1, (2S,4R)—N-((1R,2R)-1,3-dihydroxy-1-phenylpropan-2-yl)-4-undecylpiperidine-2-carboxamide] | EtOH, DMSO
16 | CCCCCCCCCCC[C@H]1CCN[C@@H](C(=O)N[C@H](CO)[C@H](O)c2ccccc2)C1 [CYD-5-68-2, (2R,4S)—N-((1R,2R)-1,3-dihydroxy-1-phenylpropan-2-yl)-4-undecylpiperidine-2-carboxamide] | EtOH, DMSO

Row | Structure (SMILES) | Solubility
17 | CCCCCCCCCCC[C@H]1CCN[C@@H](C(=O)N[C@@H](CO)[C@@H](O)c2ccc(SC)cc2)C1 [CYD-5-77-1, (2R,4S)—N-((1S,2S)-1,3-dihydroxy-1-(4-(methylthio)phenyl)propan-2-yl)-4-undecylpiperidine-2-carboxamide] | EtOH, DMSO
18 | CCCCCCCCCCC[C@@H]1CCN[C@H](C(=O)N[C@@H](CO)[C@@H](O)c2ccc(SC)cc2)C1 [CYD-5-77-2, (2S,4R)—N-((1S,2S)-1,3-dihydroxy-1-(4-(methylthio)phenyl)propan-2-yl)-4-undecylpiperidine-2-carboxamide] | EtOH, DMSO
19 | CCCCCCCCCCC[C@H]1CCN[C@@H](C(=O)N[C@@H](CO)[C@@H](O)c2ccc(S(C)(=O)=O)cc2)C1 [CYD-5-80-1, (2R,4S)—N-((1S,2S)-1,3-dihydroxy-1-(4-(methylsulfonyl)phenyl)propan-2-yl)-4-undecylpiperidine-2-carboxamide] | EtOH, DMSO
20 | CCCCCCCCCCC[C@@H]1CCN[C@H](C(=O)N[C@@H](CO)[C@@H](O)c2ccc(S(C)(=O)=O)cc2)C1 [CYD-5-80-2, (2S,4R)—N-((1S,2S)-1,3-dihydroxy-1-(4-(methylsulfonyl)phenyl)propan-2-yl)-4-undecylpiperidine-2-carboxamide] | EtOH, DMSO
21 | O=C(N[C@H](CO)[C@H](O)c1ccccc1)[C@@H]1C[C@H](CCc2ccccc2)CCN1 [CYD-5-100-1, (2S,4R)—N-((1R,2R)-1,3-dihydroxy-1-phenylpropan-2-yl)-4-phenethylpiperidine-2-carboxamide] | EtOH, DMSO
22 | O=C(N[C@H](CO)[C@H](O)c1ccccc1)[C@H]1C[C@@H](CCc2ccccc2)CCN1 [CYD-5-100-2, (2R,4S)—N-((1R,2R)-1,3-dihydroxy-1-phenylpropan-2-yl)-4-phenethylpiperidine-2-carboxamide] | EtOH, DMSO
23 | O=C(N[C@H](CO)[C@H](O)c1ccccc1)[C@@H]1C[C@H](CCC2CCCCC2)CCN1 [CYD-6-1-1, (2S,4R)-4-(2-cyclohexylethyl)-N-((1R,2R)-1,3-dihydroxy-1-phenylpropan-2-yl)piperidine-2-carboxamide] | EtOH, DMSO
24 | O=C(N[C@H](CO)[C@H](O)c1ccccc1)[C@H]1C[C@@H](CCC2CCCCC2)CCN1 [CYD-6-1-2, (2R,4S)-4-(2-cyclohexylethyl)-N-((1R,2R)-1,3-dihydroxy-1-phenylpropan-2-yl)piperidine-2-carboxamide] | EtOH, DMSO
25 | CC(C)(C)c1ccc(CC[C@@H]2CCN[C@H](C(=O)N[C@H](CO)[C@H](O)c3ccccc3)C2)cc1 [CYD-6-2-1, (2S,4R)-4-(4-(tert-butyl)phenethyl)-N-((1R,2R)-1,3-dihydroxy-1-phenylpropan-2-yl)piperidine-2-carboxamide] | EtOH, DMSO
26 | CC(C)(C)c1ccc(CC[C@H]2CCN[C@@H](C(=O)N[C@H](CO)[C@H](O)c3ccccc3)C2)cc1 [CYD-6-2-2, (2R,4S)-4-(4-(tert-butyl)phenethyl)-N-((1R,2R)-1,3-dihydroxy-1-phenylpropan-2-yl)piperidine-2-carboxamide] | EtOH, DMSO
27 | Cc1ccc(CC[C@@H]2CCN[C@H](C(=O)N[C@@H](CO)[C@@H](O)c3ccccc3)C2)cc1 [CYD-6-9-2, (2S,4R)—N-((1S,2S)-1,3-dihydroxy-1-phenylpropan-2-yl)-4-(4-methylphenethyl) piperidine-2-carboxamide] | EtOH, DMSO
28 | O=C(N[C@@H](CO)[C@@H](O)c1ccccc1)[C@@H]1C[C@H](C2CCCCC2)CCN1 [CYD-6-15-2, (2S,4R)-4-cyclohexyl-N-((1S,2S)-1,3-dihydroxy-1-phenylpropan-2-yl)piperidine-2-carboxamide] | EtOH, DMSO
29 | O=C(N[C@@H](CO)[C@@H](O)c1ccccc1)[C@@H]1C[C@H](c2ccccc2)CCN1 [CYD-6-16-2, (2S,4R)—N-((1S,2S)-1,3-dihydroxy-1-phenylpropan-2-yl)-4-phenylpiperidine-2-carboxamide] | EtOH, DMSO
30 | c1ccc(N2CCNCC2CN2CCCCC2)cc1 (stereo not shown) [JZ-1-34] | EtOH, DMSO
31 | c1ccc(N2CCN(CC3CNCCN3c3ccccc3)CC2)cc1 (stereo not shown) [JZ-1-35] | EtOH, DMSO
